# Measurements: PMC4336331, “Novel Receptor-Derived Cyclopeptides to Treat Heart Failure Caused by Anti-β1-Adrenoceptor Antibodies in a Human-Analogous Rat Model” (PLoS ONE, 2015)
# “Also recorded” adds a separate entry of the source. Read-outs that look alike come from different tables or passages of the source. Peptide text beside a SMILES is read from it.
# Assays:
# [1] = test system: anti-β1EC2-induced heart failure (β1EC2/GST-FP-immunised rats); assay: Left heart catheterisation (haemodynamics), therapy-study; type: in vivo, Lewis/CrlBR rats; conditions: LV catheterisation month 20, mean ±SEM
# Description: (§1) In brief, n = 76 two months old Lewis/CrlBR rats were either s.c. immunised with 50 μg β1EC2/GST-FP, or n = 38 rats were control-injected with 0.9% NaCl (t = 0). To maintain high anti-β1EC2-titers, all immunised rats were boosted with β1EC2/GST-FP (or 0.9% NaCl) every month over 20 months as previously described. Application of the different linear or cyclic β1-AR peptides (corresponding to the primary AA-sequence of either the first (β1EC1) or the 2nd extra-cellular β1-AR loop (β1EC2)) or the β1-receptor blocker bisoprolol was initiated either 6 weeks after the 1st immunisation (i.e. 15 days after the 1st boost, prevention-study), or 8.5 months after the 1st immunisation (therapy-study).
# [2] = test system: anti-β1EC2-antibodies; assay: Free anti-β1EC2-titers by ELISA, therapy-study; type: in vivo, Lewis/CrlBR rats; conditions: for decline in anti-β1EC2-titers: 1.0 mg/kg i.v. every 4 weeks, irrespective of bisoprolol co-treatment (Fig. 2F)
# Description: as §1
# (TIF) Click here for additional data file.
# [3] = test system: anti-β1EC2-induced heart failure (β1EC2/GST-FP-immunised rats); conditions: therapy-study, end of study, mean ±SEM
# Description: as §1
# From paraffin-embedded heart preparations cavity- and wall-dimensions were determined by computer-aided analysis of H&E-stained mid-ventricular 2μm-sections as previously described. H&E-stained paraffin-sections also served to quantify damaged and fibrotic cardiac areas (scars). For detection of mast cells, deparaffinised cardiac sections were stained with acidified (pH<2.5) toluidine blue 0.1% (Sigma). The number of toluidine-positive cells was normalized to square millimeter of cardiac tissue. TUNEL-positive cells were quantified in 2μm mid-ventricular paraffin-sections using a TMR Red in Situ Death Detection Kit (Roche, Basel, Switzerland). Only the total number of TUNEL-postive cells/section was determined without further differentiation of the specific apoptotic cell type (e.g., fibroblasts, endothelial cells, cardiomyocytes).
# [4] = test system: anti-β1EC2-induced heart failure (β1EC2/GST-FP-immunised rats); assay: Left heart catheterisation (haemodynamics), prevention-study; type: in vivo, Lewis/CrlBR rats; conditions: LV catheterisation month 16, mean ±SEM
# Description: as §1
# [5] = test system: anti-β1EC2-induced heart failure (β1EC2/GST-FP-immunised rats); assay: Relative organ wet weights and body weight, therapy-study; conditions: month 20, mean ±SEM
# Description: as §1
# (§2) After the hearts all other relevant inner organs (e.g., lung, liver, spleen, kidneys, brain, and eyes) were removed, rinsed with ice-cold PBS, weighed, sectioned, and fixed for further histologic analysis.
# [6] = test system: anti-β1EC2-induced heart failure (β1EC2/GST-FP-immunised rats); assay: Echocardiography and catheterisation, cardiomyopathic phenotype, therapy-study; type: in vivo, Lewis/CrlBR rats; conditions: echocardiography and catheterisation (Fig. 2G, H; S2 Fig.)
# Description: as §1
# (§3) In brief, the rats were lightly anaestetised (30 mg/kg ketamine-HCl and 5 mg/kg xylazine i.p.), shaved (chest), and placed supine on a special table. M-mode tracings were recorded at baseline (before immunisation), and subsequently every four months in the parasternal long and short axis views according to the guidelines of the American Society for Echocardiography. Pulsed-wave Doppler spectra were recorded from the apical five-chamber view and the velocity-time integral (VTI) of the transaortic flow served to calculate cardiac output (CO [ml/min] = Aortic VTI x (π [LV-outflow tract diameter/2]^2) x bpm).
# [7] = test system: anti-β1EC2-induced heart failure (β1EC2/GST-FP-immunised rats); assay: Echocardiography, catheterisation and histomorphology, prevention-study; type: in vivo, Lewis/CrlBR rats; conditions: cardiac catheterisation, histomorphology
# Description: as §1, §3
# [8] = test system: brain, liver, heart, kidney, eye, and spleen; assay: Histologic analysis of organs for treatment-related pathologies; conditions: therapy-study, after 12 months of treatment; H&E-stained sections (S3 Fig.)
# Excerpt: as §2
# Supplementary file pone.0117589.s003.tif: S3 Fig Histologic analysis of various organs (therapy-study, mono-treatment). Representative H&E-stained 2μm cross-sections from various organs analyzed for treatment-related pathologies. Panels (from top to bottom) show organs analyzed from immunised anti-β1EC2-positive untreated, β1EC2-CP-treated, or bisoprolol-treated rats. […] (TIF) Click here for additional data file.
# [9] = immunised anti-β1EC2-positive rats, from 8.5 months after 1st immunisation peptides 1.0 mg/kg i.v. every 4 weeks, bisoprolol 15 mg/kg/day orally, over 12 months
# [10] = non-immunised 0.9% NaCl-injected rats, EC2-CP 1.0 mg/kg i.v. every 4 weeks or bisoprolol 15 mg/kg/day orally over 12 months
# [11] = immunised anti-β1EC2-positive rats, from 6 weeks after 1st immunisation EC2-CP 1.0 mg/kg i.v. every 4 weeks or bisoprolol 15 mg/kg/day orally over 12 months
smiles,measurement,setting,value
CC(C)[C@@H]1NC(=O)[C@H](Cc2ccccc2)NC(=O)[C@H](CC(=O)O)NC(=O)[C@H](CS)NC(=O)[C@H](CS)NC(=O)[C@H](CCCCN)NC(=O)[C@@H]2CCCN2C(=O)[C@H](CC(=O)O)NC(=O)[C@H](CC(N)=O)NC(=O)[C@H](Cc2ccc(O)cc2)NC(=O)[C@H](CS)NC(=O)[C@H](CCCNC(=N)N)NC(=O)[C@H](CCCNC(=N)N)NC(=O)[C@H](C)NC(=O)[C@H](CCC(=O)O)NC(=O)[C@H](CC(=O)O)NC(=O)[C@H](CO)NC(=O)[C@H](CCC(=O)O)NC(=O)[C@H](C)NC(=O)[C@H](CCCNC(=N)N)NC(=O)[C@H](C)NC(=O)[C@H](CCC(N)=O)NC(=O)CNC(=O)[C@H](CCCNC(=N)N)NC(=O)[C@H](CC(N)=O)NC(=O)[C@H]([C@@H](C)O)NC1=O [β1EC2-CP] (cyclo(AESDEARRCYNDPKCCDFVTNRGQAR)),-dP/dt (relaxation),[1]; [9],5228 ±166 mmHg/s
same,HF (heart frequence),[1]; [9],217 ±3 bpm
same,LVEDP (LV end-diastolic pressure),[1]; [9],10.0 ± 1.0 mmHg
same,LVSP (maximal systolic LV-pressure),[1]; [9],126 ±4 mmHg
same,-dP/dt (relaxation),[1]; [10],5502 ±248 mmHg/s
same,HF (heart frequence),[1]; [10],221 ±7 bpm
same,LVEDP (LV end-diastolic pressure),[1]; [10],9.2 ± 1.1 mmHg
same,LVSP (maximal systolic LV-pressure),[1]; [10],121 ±8 mmHg
same,decline in anti-β1EC2-titers,[2]; after 4–5 injections,> 90%
same,decline in anti-β1EC2-titers,[2]; after two injections,> 70%
same,steady state antibody-levels in % of the titers at initiation of therapy,[2]; despite monthly antigen-boosts,less than 15%
same,IVS (thickness of the inter-ventricular septum),[3]; [9],1.7 ±0.1 mm
same,LVA (total LV-area),[3]; [9],65.2 ±2.5 mm2
same,LVCA (LV-cavity area),[3]; [9],25.6 ±1.0 mm2
same,LVWA (LV wall area),[3]; [9],39.6 ±1.7 mm2
same,PW (posterior wall thickness),[3]; [9],1.8 ±0.1 mm
same,IVS (thickness of the inter-ventricular septum),[3]; [10],1.7 ±0.1 mm
same,LVA (total LV-area),[3]; [10],57.4 ±0.7 mm2
same,LVCA (LV-cavity area),[3]; [10],21.3 ±0.1 mm2
same,LVWA (LV wall area),[3]; [10],36.1 ±0.7 mm2
same,PW (posterior wall thickness),[3]; [10],1.9 ±0.1 mm
same,-dP/dt (relaxation),[4]; [11],5887 ±93 mmHg/s
same,HF (heart frequence),[4]; [11],226 ±5 bpm
same,LVEDP (LV end-diastolic pressure),[4]; [11],10.4 ±0.6 mmHg
same,LVSP (maximal systolic LV-pressure),[4]; [11],127 ±4 mmHg
same,-dP/dt (relaxation),[4]; [10],5986 ±288 mmHg/s
same,HF (heart frequence),[4]; [10],232 ±7 bpm
same,LVEDP (LV end-diastolic pressure),[4]; [10],10.1 ±1.4 mmHg
same,LVSP (maximal systolic LV-pressure),[4]; [10],135 ±7 mmHg
same,"Heart, relative (wet) weight",[5]; [9],2.20 ± 0.09 mg/g
same,"Kidney L, relative (wet) weight",[5]; [9],2.29 ± 0.06 mg/g
same,"Kidney R, relative (wet) weight",[5]; [9],2.25 ± 0.05 mg/g
same,"Liver, relative (wet) weight",[5]; [9],19.83 ± 0.50 mg/g
same,"Lung, relative (wet) weight",[5]; [9],2.26 ± 0.16 mg/g
same,"Spleen, relative (wet) weight",[5]; [9],1.23 ± 0.04 mg/g
same,Weight (body weight),[5]; [9],673 ± 12 g
same,"Heart, relative (wet) weight",[5]; [10],2.15 ± 0.08 mg/g
same,"Kidney L, relative (wet) weight",[5]; [10],2.19 ± 0.08 mg/g
same,"Kidney R, relative (wet) weight",[5]; [10],2.22 ± 0.08 mg/g
same,"Liver, relative (wet) weight",[5]; [10],18.9 ± 0.55 mg/g
same,"Lung, relative (wet) weight",[5]; [10],2.08 ± 0.07 mg/g
same,"Spleen, relative (wet) weight",[5]; [10],1.18 ± 0.03 mg/g
same,Weight (body weight),[5]; [10],695 ± 27 g
same,"cardiomyopathic phenotype, in words",[6],almost fully reversed
same,"development of cardiomyopathy and heart failure, in words",[7],able to prevent development of cardiomyopathy and heart failure
same,"treatment-related organ pathologies / organ-toxicity, in words",[8],no β1EC2-CP-related pathologies were noted; also recorded: Neither treatment strategy caused detectable organ-specific toxicity
